Measured values as given in US12016357B2, “Glycoside compositions” (CARGILL, INCORPORATED, priority 2015, dated 2024).

What was measured:
[1] = Trained sensory panel rating of sweetness and bitterness intensity, Example 2 (measured values, S/B); type: in vivo; conditions: for Measured Bitterness / Measured Sweetness: citric acid buffer, scale 1-15; for Measured S/B: sweetness/bitterness ratio
Protocol: A trained sensory panel evaluated solutions of each rebaudioside D, rebaudioside M, rebaudioside G, rebaudioside O, rebaudioside N and rebaudioside E at 400 ppm and 600 ppm. Solutions were made in a citric acid buffer as the reference standard solutions described in Example 1. All solutions were heated to 55° C. for 12 minutes to ensure that all the glycoside material was completely dissolved. The solutions were allowed to cool to room temperature before serving to the panelists. Each solution was given a random 3-digit code and was served to the panelists in random order. Panelists dispensed 2 mL of each solution into their mouths from a pipette. The panelists were then asked to rate the “sweetness intensity” and “bitterness intensity” of the solutions and mark their responses on an un-anchored, 15 cm line scale. The length of the line corresponds to the scale values (1-15) on which the participants were trained. The panelists' responses were measured, compiled, and averaged for each sample (measured sweetness values and bitterness values). In between testing samples, the panelists cleansed their palates with water and apple slices. The panelists also waited 5 minutes between each sample. Rebaudioside D (purity of 94.4%) was obtained from ChromaDex™ Corp and rebaudioside M (purity 99.3%) was obtained from Cargill, Incorporated. Rebaudioside G (purity of 96.0%), Rebaudioside O (purity of 97.9%), Rebaudioside N (purity of 93.5%), Rebaudioside E (purity of 97.2%) were each obtained from ChromaaDex™ Corp. […] Also shown in Table 7 is the sweetness/bitterness ratios (S/B).

[2] = Trained sensory panel rating of sweetness intensity (SEV) and bitterness intensity, Example 1; type: in vivo; conditions: for Sweetness Avg. / Bitter Avg.: mean of five replicate tests; for Bitter Avg.: caffeine scale 1-15
Protocol: A sensory panel was trained to scale sweetness and bitterness. Reference tasting standards were prepared by dissolving respective standard material (sucrose for sweetness and caffeine for bitterness) into an aqueous citric acid buffer solution at pH 3.1 (distilled water containing 0.1% citric acid and 0.015% sodium citrate) according to the scale values shown in Table 1 below.
Solutions were made in the same citric acid buffer as the reference standard solutions. All solutions were heated to 55° C. for 12 minutes to ensure that all the glycoside material was completely dissolved. The solutions were allowed to cool to room temperature before serving to the panelists. Each solution was given a random 3-digit code and was served to the panelists in random order. Panelists dispensed 2 mL of each solution into their mouths from a pipette. The panelists were then asked to rate the “sweetness intensity” and “bitterness intensity” of the solutions and mark their responses on an un-anchored, 15 cm line scale. The length of the line corresponds to the scale values (1-15) on which the participants were trained. The panelists' responses were measured, compiled, and averaged for each sample. Each sample was tested by approximately 17 to 21 trained panelists.
In between testing samples, the panelists cleansed their palates with water and apple slices. The panelists also waited 5 minutes between each sample. Sweetness and bitter values of rebaudioside D (purity of 94.4%) and rebaudioside M (purity of […]) at varying concentrations were also obtained utilizing a sensory panel in a manner as described above. The sweetness is reported as sweetness and the sweetness is measured as a sucrose equivalent (SEV).
The sweetness and bitterness values of sweetener compositions containing Reb D or Reb M with other glycosides are shown in Tables 3-5. As described above, the samples were tasted by the panelist in random order. The tables show the concentration of the composition tested (ppm) as well as the ratio of one glycoside to another in the composition as a weight percentage.

[3] = 400 ppm in citric acid buffer pH 3.1
[4] = 600 ppm in citric acid buffer pH 3.1
[5] = total blend 400 ppm, citric acid buffer pH 3.1

SMILES	Measured Bitterness ([1]; 400 ppm)	Measured Sweetness ([1]; 400 ppm)	Measured S/B ([1]; 400 ppm)	Measured Bitterness ([1]; 600 ppm)	Measured Sweetness ([1]; 600 ppm)	Measured S/B ([1]; 600 ppm)	Sweetness Avg. [2, 3] [SEV]	Bitter Avg. [2, 3]	Sweetness Avg. [2, 4] [SEV]	Bitter Avg. [2, 4]	Bitter [2, 5]	Sweetness [2, 5] [SEV]
C=C1C[C@@]23CC[C@H]4[C@@](C)(CCC[C@@]4(C)C(=O)O[C@@H]4O[C@H](CO)[C@@H](O)[C@H](O[C@@H]5O[C@H](CO)[C@@H](O)[C@H](O)[C@H]5O)[C@H]4O[C@@H]4O[C@@H](C)[C@H](O)[C@@H](O)[C@H]4O)[C@@H]2CC[C@]1(O[C@@H]1O[C@H](CO)[C@@H](O)[C@H](O[C@@H]2O[C@H](CO)[C@@H](O)[C@H](O)[C@H]2O)[C@H]1O[C@@H]1O[C@H](CO)[C@@H](O)[C@H](O)[C@H]1O)C3 [Reb N, Rebaudioside N]	3.03	7.44	2.45	3.25	7.709	2.37	–	–	–	–	–	–
C=C1C[C@@]23CC[C@H]4[C@@](C)(CCC[C@@]4(C)C(=O)O[C@@H]4O[C@H](CO)[C@@H](O)[C@H](O[C@@H]5O[C@H](CO)[C@@H](O)[C@H](O)[C@H]5O)[C@H]4O[C@@H]4O[C@H](CO)[C@@H](O)[C@H](O)[C@H]4O)[C@@H]2CC[C@]1(O[C@@H]1O[C@H](CO)[C@@H](O)[C@H](O[C@@H]2O[C@H](CO)[C@@H](O)[C@H](O)[C@H]2O)[C@H]1O[C@@H]1O[C@H](CO)[C@@H](O)[C@H](O)[C@H]1O)C3 [Reb M, Rebaudioside M]	3.65	7.76	2.14	3.76	8.38	2.26	7.7	3.8	8.4	4.2	–	–
C=C1C[C@@]23CC[C@H]4[C@@](C)(CCC[C@@]4(C)C(=O)O[C@@H]4O[C@H](CO)[C@@H](O)[C@H](O)[C@H]4O[C@@H]4O[C@H](CO)[C@@H](O)[C@H](O)[C@H]4O)[C@@H]2CC[C@]1(O[C@@H]1O[C@H](CO)[C@@H](O)[C@H](O[C@@H]2O[C@H](CO)[C@@H](O)[C@H](O)[C@H]2O)[C@H]1O[C@@H]1O[C@H](CO)[C@@H](O)[C@H](O)[C@H]1O)C3 [Reb D, Rebaudioside D]	3.51	7.08	2.05	3.80	8.31	2.23	7.1	3.6	8.3	4.2	–	–
C=C1C[C@@]23CC[C@H]4[C@@](C)(CCC[C@@]4(C)C(=O)O[C@@H]4O[C@H](CO)[C@@H](O)[C@H](O)[C@H]4O[C@@H]4O[C@H](CO)[C@@H](O)[C@H](O)[C@H]4O)[C@@H]2CC[C@]1(O[C@@H]1O[C@H](CO)[C@@H](O)[C@H](O)[C@H]1O[C@@H]1O[C@H](CO)[C@@H](O)[C@H](O)[C@H]1O)C3 [Reb E, Rebaudioside E]	2.93	4.53	1.55	2.98	6.29	2.11	–	–	–	–	–	–
C=C1C[C@@]23CC[C@H]4[C@@](C)(CCC[C@@]4(C)C(=O)O[C@@H]4O[C@H](CO)[C@@H](O)[C@H](O[C@@H]5O[C@H](CO)[C@@H](O)[C@H](O)[C@H]5O)[C@H]4O[C@@H]4O[C@@H](C)[C@H](O)[C@@H](O[C@@H]5O[C@H](CO)[C@@H](O)[C@H](O)[C@H]5O)[C@H]4O)[C@@H]2CC[C@]1(O[C@@H]1O[C@H](CO)[C@@H](O)[C@H](O[C@@H]2O[C@H](CO)[C@@H](O)[C@H](O)[C@H]2O)[C@H]1O[C@@H]1O[C@H](CO)[C@@H](O)[C@H](O)[C@H]1O)C3 [Reb O, Rebaudioside O]	2.98	7.47	2.51	3.23	7.669	2.37	–	–	–	–	3.1	7.2
C=C1C[C@@]23CC[C@H]4[C@@](C)(CCC[C@@]4(C)C(=O)O[C@@H]4O[C@H](CO)[C@@H](O)[C@H](O)[C@H]4O)[C@@H]2CC[C@]1(O[C@@H]1O[C@H](CO)[C@@H](O)[C@H](O[C@@H]2O[C@H](CO)[C@@H](O)[C@H](O)[C@H]2O)[C@H]1O)C3 [Reb G, Rebaudioside G]	2.53	2.17	0.86	2.30	1.98	0.84	–	–	–	–	–	–
